Assay results taken from patent publication US10941157B2, “Pesticidal compositions and uses thereof” (Gilead Apollo, LLC, priority 2015, dated 2021).
≈ marks a conversion by molar mass, not a printed value.

What was measured:
[1] = tested on: Fusarium graminearum; type: in vivo; conditions: spray on flowering Triticum aestivum cv. Samson, inoculated 24 hours after treatment, evaluated 14 days later
[2] = tested on: Phakopsora pachyrhizi; test: Foliar protection test for Asian soybean rust control; type: in vivo; conditions: foliar application to soybean (Glycine max AG4832), percent disease area evaluated 14 days later
[3] = tested on: Collectotrichum graminicola (Cg); test: In vitro pathogen growth inhibition assay, Cg; type: cell-based; conditions: 48 h, ≥90% growth inhibition; 48 hours; vs 2% DMSO control; read-out: Compound Concentration (ppm) sufficient for ≥90% inhibition of Cg
How it was run: (§1)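 Value reported is the compound concentration reaching ≥90% growth inhibition, from OD readings at 24 and 48 h after blank subtraction, confirmed visually. Inoculum was spores diluted in 17% V8 medium, except Rs, using 1.5 mm mycelial plugs in ¼ PDB; actual compound concentration corrected via OD600.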

[4] = tested on: Septoria tritici (St); test: In vitro pathogen growth inhibition assay, St; type: cell-based; conditions: Zymoseptoria tritici, 48 h, ≥90% growth inhibition; 48 hours; vs 2% DMSO control; read-out: Compound Concentration (ppm) sufficient for ≥90% inhibition of St
How it was run: as §1

[5] = tested on: Fusarium moniliforme (Fm); test: In vitro pathogen growth inhibition assay, Fm; type: cell-based; conditions: Fusarium verticillioides; ≥90% growth inhibition; 48 hours; vs 2% DMSO control; read-out: Compound Concentration (ppm) sufficient for ≥90% inhibition of Fm
How it was run: as §1

[6] = tested on: Rhizoctonia solani (Rs); test: In vitro pathogen growth inhibition assay, Rs (mycelial plugs); type: cell-based; conditions: Rhizoctonia solani, 48 h, ≥90% growth inhibition; mycelial plugs; 48 hours; vs 2% DMSO control; read-out: Compound Concentration (ppm) sufficient for ≥90% inhibition of Rs
How it was run: (§2)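 Spores of Dm, Fv and Pc were diluted in 17% V8 liquid medium; Rs used 1.5 mm mycelial plugs in ¼ PDB. Compounds from 2.5 mg/ml DMSO stocks were combined with inoculum, growth was read by OD600 at 24 and 48 h with blank subtraction, and the reported value is the concentration giving ≥90% inhibition.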

[7] = tested on: Phytophthora capsici (Pc); test: In vitro pathogen growth inhibition assay, Pc; type: cell-based; conditions: 48 h, ≥90% growth inhibition, 48 hours, vs 2% DMSO control, read-out: Compound Concentration (ppm) sufficient for ≥90% inhibition of Pc
How it was run: as §2

[8] = tested on: Puccinia triticina; test: Foliar protection test for wheat leaf rust control; type: in vivo; conditions: foliar application to wheat (Triticum aestivum cv. Winterhawk), evaluated 10 days later
[9] = tested on: Diplodia maydis (Dm); test: In vitro pathogen growth inhibition assay, Dm; type: cell-based; conditions: Stenocarpella maydis, 48 h, ≥90% growth inhibition; 48 hours; vs 2% DMSO control; read-out: Compound Concentration (ppm) sufficient for ≥90% inhibition of Dm
How it was run: as §2

[10] = tested on: Sphaerotheca fuliginea; test: Foliar protection for cucumber powdery mildew control; type: in vivo; conditions: foliar spray on Cucumis sativus cv. Straight Eight, inoculated 24 hours after treatment, evaluated 7 days later
How it was run: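 Protective foliar spray on 10-day-old Straight Eight cucumbers, with S. fuliginea spores dusted from infected stock plants 24 h after treatment. Disease developed at 23–27 °C, 60% RH and a 16 h photoperiod. Leaves were rated for mildew growth after 7 days; test rates 10 ppm or below.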

[11] = tested on: Blumeria graminis f. sp. hordei; test: Foliar protection test for barley powdery mildew control; type: in vivo; conditions: foliar spray on Hordeum vulgare cv. Perry, inoculated 24 hours after treatment, evaluated 7 days later
How it was run: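 Protective foliar test: compound atomized onto both leaf surfaces of 6-day-old Hordeum vulgare cv. Perry, followed after 24 h by spore-cloud inoculation from colonized untreated plants. Disease rated on leaves 7 days on, plants held at 20 to 22° C and 70% RH.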

[12] = tested on: Fusarium virguliforme (Fv); test: In vitro pathogen growth inhibition assay, Fv; type: cell-based; conditions: ≥90% growth inhibition, 48 hours, vs 2% DMSO control, read-out: Compound Concentration (ppm) sufficient for ≥90% inhibition of Fv
How it was run: as §2

[13] = tested on: Botrtyis cinerea (Bc); test: In vitro pathogen growth inhibition assay, Bc; type: cell-based; conditions: 48 h, ≥90% growth inhibition; 48 hours; vs 2% DMSO control; read-out: Compound Concentration (ppm) sufficient for ≥90% inhibition of Bc
How it was run: as §1

[14] = tested on: Mycosphaerella graminicola (synthetic Septoria tritici); test: Foliar protection test for wheat septoria leaf blotch control; type: in vivo; conditions: foliar spray on Triticum aestivum cv. WinterHawk, inoculated 1 hour after treatment, evaluated 16 days later

| SMILES | Wheat Fusarium Head Blight Control at a compound concentration of 25 ppm or lower [1] | Asian Soybean Rust Control at a compound concentration of 25 ppm or lower [2] | IC90 [3] [µg/mL] | IC90 [4] [µg/mL] | IC90 [5] [µg/mL] | IC90 [6] [µg/mL] | IC90 [7] [µg/mL] | Wheat Leaf Rust Control at a compound concentration of 10 ppm or lower [8] | IC90 [9] [µg/mL] | Cucumber Powdery Mildew Control at a compound concentration of 10 ppm or lower [10] | Barley Powdery Mildew Control at a compound concentration of 10 ppm or lower [11] | IC90 [12] [µg/mL] | IC90 [13] [µg/mL] | Septoria Leaf Blotch Control at a compound concentration of 25 ppm or lower [14] |
| --- | --- | --- | --- | --- | --- | --- | --- | --- | --- | --- | --- | --- | --- | --- |
| CCc1ccc(F)cc1[C@H](Cn1c(=O)n(C(C)(C)C(=O)NC(C)C)c(=O)c2c(C)c(-n3nccn3)sc21)OCCO [Compound I-246, (R)-2-(1-(2-(2-ethyl-5-fluorophenyl)-2-(2-hydroxyethoxy)ethyl)-5-methyl-2,4-dioxo-6-(2H-1,2,3-triazol-2-yl)-1,4-dihydrothieno[2,3-d]pyrimidin-3 (2H)-yl)-N-isopropyl-2-methylpropanamide] | B (from 50 to 69% control of wheat fusarium head blight) | AA (≥85% control of Asian soybean rust) | 0.08 (≈ 0.136 µM) | ≥ 2 | 0.08 (≈ 0.136 µM) | 0.1 (≈ 0.17 µM) | 10 (≈ 17 µM) | A (from 70% to 84% control of wheat leaf rust) | 0.4 (≈ 0.682 µM) | AA (≥85% control of cucumber powdery mildew) | A (from 70% to 84% control of barley powdery mildew) | 0.08 (≈ 0.136 µM) | 0.4 (≈ 0.682 µM) | A (from 70% to 84% control of wheat septoria leaf blotch) |
| CCOC(=O)c1sc2c(c1C)c(=O)n(C(C)(C)C(=O)NC(C)C)c(=O)n2C[C@H](OC[C@H](C)C#N)c1cc(F)ccc1OC [Compound I-259, (R)-ethyl-1-(2-((R)-2-cyanopropoxy)-2-(5-fluoro-2-methoxyphenyl)ethyl)-3-(1-(isopropylamino)-2-methyl-1-oxopropan-2-yl)-5-methyl-2,4-dioxo-1,2,3,4-tetrahydrothieno[2,3-d]pyrimidine-6-carboxylate] | B (from 50 to 69% control of wheat fusarium head blight) | B (from 50 to 69% control of Asian soybean rust) | 0.08 (≈ 0.13 µM) | > 10 | 0.08 (≈ 0.13 µM) | 0.08 (≈ 0.13 µM) | > 50 | C (from 25 to 49% control of wheat leaf rust) | 0.4 (≈ 0.649 µM) | AA (≥85% control of cucumber powdery mildew) | A (from 70% to 84% control of barley powdery mildew) | 0.4 (≈ 0.649 µM) | 0.4 (≈ 0.649 µM) | C (from 25 to 49% control of wheat septoria leaf blotch) |
| COc1ccc(F)cc1[C@H](Cn1c(=O)n(C(C)(C)C(=O)NC(C)C)c(=O)c2c(C)c(-n3nccn3)sc21)OCC#N [Compound I-210, (R)-2-(1-(2-(cyanomethoxy)-2-(5-fluoro-2-methoxyphenyl)ethyl)-5-methyl-2,4-dioxo-6-(2H-1,2,3-triazol-2-yl)-1,4-dihydrothieno[2,3-d]pyrimidin-3 (2H)-yl)-N-isopropyl-2-methylpropanamide] | C (from 25 to 49% control of wheat fusarium head blight) | AA (≥85% control of Asian soybean rust) | ≥ 0.4 | > 50 | 2 (≈ 3.43 µM) | 0.08 (≈ 0.137 µM) | > 50 | A (from 70% to 84% control of wheat leaf rust) | 0.4 (≈ 0.685 µM) | AA (≥85% control of cucumber powdery mildew) | AA (≥85% control of barley powdery mildew) | 0.4 (≈ 0.685 µM) | 0.4 (≈ 0.685 µM) | AA (≥85% control of wheat septoria leaf blotch) |
| CCNC(=O)C(C)(C)n1c(=O)c2c(C)c(C(=O)OCC)sc2n(C[C@H](OCCC#N)c2cc(F)ccc2OC)c1=O [Compound I-231, (R)-ethyl-1-(2-(2-cyanoethoxy)-2-(5-fluoro-2-methoxyphenyl)ethyl)-3-(1-(ethylamino)-2-methyl-1-oxopropan-2-yl)-5-methyl-2,4-dioxo-1,2,3,4-tetrahydrothieno[2,3-d]pyrimidine-6-carboxylate] | C (from 25 to 49% control of wheat fusarium head blight) | A (from 70% to 84% control of Asian soybean rust) | 0.4 (≈ 0.68 µM) | ≥ 10 | 0.08 (≈ 0.136 µM) | 0.08 (≈ 0.136 µM) | > 50 | AA (≥85% control of wheat leaf rust) | 0.4 (≈ 0.68 µM) | AA (≥85% control of cucumber powdery mildew) | AA (≥85% control of barley powdery mildew) | 2 (≈ 3.4 µM) | 2 (≈ 3.4 µM) | C (from 25 to 49% control of wheat septoria leaf blotch) |
